In US12533403B2, “Peptide conjugated particles” (NORTHWESTERN UNIVERSITY, priority 2013, dated 2026):
Entries after “also recorded” stand apart in the source; their conditions may differ. No end group written: not given here.

Key:
[1] = tested on: spontaneous Type 1 diabetes; assay: Spontaneous type 1 diabetes in NOD mice; type: in vivo; settings: iv at 6, 8, and 10 weeks of age; diabetes = blood glucose >250 mg/dL
Experimental: NOD mice were treated with either BSA (N=22) or insulin (N=23) coupled PLG particles via intravenous administration at 6, 8, and 10 weeks of age. The mice were then assayed for the development of diabetes which was defined as blood glucose >250 mg/dL.

[2] = tested on: Relapsing Experimental Autoimmune Encephalitis (R-EAE); assay: Prophylactic tolerance induction in PLP139-151/CFA-induced R-EAE; type: in vivo, SJL/J mice; settings: for clinical score (disease induction): 500 nm particles given on day −7 relative to immunization, N=5
Th1 and Th17 responses = assay: Induction of antigen-specific Th1 and Th17 responses (draining lymph node cells); type: in vivo, BALB/c mice; settings: particles iv Day −7; measured at Day 10
Experimental: To determine whether administration of antigen-coupled particles inhibit induction of T-helper cells, either MOG35-55-PLG or OVA323-339-PLG particles were administered intravenously to BALB/c mice at Day −7. On Day 0, OVA323-339-PLG particles and Complete Freund's Adjuvant (CFA) were administered subcutaneously to the mice. The animals were re-stimulated with either MOG35-55-PLG or OVA323-339-PLG particles on Day 10 and the draining lymph node cells were isolated. The CPM and levels of IL-17, GM-CSF, IFN-γ, IL-10, and IL-4 were measured at Day 10.

[3] = tested on: cervical spinal cord of R-EAE mice; assay: Spinal cord histology and in vivo imaging in EAE
Experimental: An additional therapeutic tolerance strategy was performed by delivering PLP139-151-PLG or OVA323-339 PLG to mice. […] Mice were treated with PLP-PLG or OVA323-339-PLG and the tissue was retrieved at day 40. The cervical spinal cord was isolated and sectioned to investigate the immune response within the CNS, which underlies the pathology of R-EAE and multiple sclerosis.
Animals were treated with Complete Freund's Adjuvant (CFA), OVA323-339 PLG particles, or PLP139-151-PLG particles. The clinical scores and percent incidence of EAE were determined (FIG. 10B) and the spinal cords observed via in vivo imaging (FIGS. 10A and 11). […] The bar graphs give the numerical numbers to the signal strength shown in the brain and SC scans.

[4] = tested on: Relapsing Experimental Autoimmune Encephalitis (R-EAE); assay: Treatment of R-EAE at day 10 by different routes of administration; type: in vivo, mice
Experimental: Experiments were conducted during development of embodiments of the present invention to investigate the ability of the PLG-PLP139-151 particles to treat disease rather than prevent disease, and to determine whether the route of administration affected the development of disease. Mice were immunized at day 0 with PLP139-151 and an adjuvant. Mice normally have maximal clinical scores at day 12-14. In this model, the mice were treated at day 10 with the PLG-PLP139-151 particles or with control PLG-OVA323-339 particles either via intravenous (iv) administration, intraperitoneal (ip) administration, subcutaneous (sc) administration, or orally. […] This is in contrast to animals treated with PLP139-151 polystyrene particles, whereby >70% of animals where observed to die from anaphylaxis.

[5] = tested on: PLP139-151/CFA-induced EAE; assay: Anaphylaxis on iv injection during EAE remission; type: in vivo, SJL/J mice; settings: iv on day 21 (remission) relative to disease induction
Experimental: EAE was induced in six to eight week old female SJL/J mice by subcutaneous injection of PLP139-151 in CFA, and development of clinical disease was monitored and recorded (FIG. 5B). On day 21 relative to disease induction, mice were given iv injections of soluble PLP139-151 (clear squares), soluble OVA323-339 (clear circles), or the same peptides coupled to PLG nanoparticles (solids). Temperature of animals was monitored and recorded every 10 minutes for 1 hour following injection (FIG. 5A).

[6] = tested on: adoptive EAE (PLP139-151-activated blasts); assay: Therapeutic tolerance in adoptive transfer (and active) EAE; type: in vivo, SJL/J mice
Experimental: Experiments were conducted during development of embodiments of the present invention to investigate a second model of active disease termed adoptive transfer. Rather than immunizing the animals with the peptide, the lymphocytes from the spleen of mice with active disease were transferred to a recipient, who would subsequently develop disease. Experiments were conducted during development of embodiments of the present invention to characterize the ability of the PLG nanoparticles to deactivate the adoptively transferred activated effector cells.
Therapeutic tolerance induced by PLP139-151-PLG particles was compared in active and adoptive EAE. Adoptive EAE was induced in six to eight-week old female SJL/J mice by adoptive transfer of 2.5×10^6 PLP139-151-activated blasts. Mice were injected iv with PLP139-151 (squares) or OVA323-339 (circles) peptide coupled to 500 nm PLG nanoparticles 2 days (FIG. 14A), 14 days (FIG. 14C), 18 days (FIG. 14E), or 21 days (FIG. 14F) following disease induction. Clinical disease scores were compared to those following treatment with antigen-coupled splenocytes (FIG. 14A). Brain and spinal cord were collected from PLP139-151- or OVA323-339-tolerized mice for histological analysis on day 42. Sections from mice from panel A were stained for PLP protein and CD45 (FIG. 14B).
Mice were injected iv with PLP139-151-SP, PLP139-151-PLG, or OVA323-339-SP, or OVA323-339-PLG peptide coupled to 500 nm nanoparticles 10 days (FIG. 15A) or 2 days (FIG. 15B) following disease induction and the mean clinical score was determined.
SJL/J mice were injected i.v. with 500 nm PLG nanoparticles coupled with PLP139-151 (squares) or OVA323-339 (circles) 2 days following EAE induction by adoptive transfer. At the peak of disease (day 14) brains and spinal cords were removed and the number of lymphocytes (FIG. 16B), APCs (FIG. 16C), microglia (FIG. 16D), peripheral dendritic cells (FIG. 16E), myeloid dendritic cells (FIG. 16F) and macrophages (FIG. 16G) were enumerated by flow cytometry. The gating strategy for these populations is depicted in (FIG. 16A). CNS cell preparations were stimulated with PMA and ionomycin for 5 h prior to intracellular staining for IL-17A and IFN-γ (FIG. 16H).
To test the effect of treatment with an anti-PD-1 antibody on PLP139-151 induced tolerance in mice with adoptive EAE, on Day 0, mice received 3×10^6 PLP139-151 activated T-cell blasts via intravenous administration. On Day 2, they received PLP139-151 or OVA323-339 encapsulated in PLG particles via intravenous administration with either PBS or an anti-PD-1 antibody. On days 4, 6, 8, 10, and 12 all animals received either 250 μg anti-PD-1 antibody or PBS. […]

[7] = tested on: OVA/Alum pre-sensitized mice; assay: Anaphylaxis-induced temperature drop in OVA/Alum pre-sensitized animals; type: in vivo; settings: iv on day 28; within 1 hour of delivery
Experimental: Due to the presence of active disease, anaphylaxis to the antigens is a concern, which could result in immediate mortality, and has been described with polystyrene bound particles. Anaphylaxis is associated with a significant drop in body temperature. To test whether intravenous administration of OVA-PLG induces an anaphylaxis-induced temperature drop in pre-sensitized animals, mice were immunized at day 0 with 10 μg OVA/Alum via intraperitoneal injection. On day 14, the mice were again immunized with 10 μg OVA/Alum via intraperitoneal injection, and then tolerized with OVA-PLG administered intravenously on day 21. On day 28, the mice were then tolerized with either OVA-PLG particles or OVA via intravenous administration.

BSA coupled PLG particles: BSA coupled PLG particles (control) [reference compound]
percentage of mice that did not develop diabetes over 300 days [1]: 22.7%

OVA323-339-PLG: control peptide OVA323-339 coupled to PLG particles (KISQAVHAAHAEINEAG; also: coupled to PLG particles; UniProt P01012 323-339, looked up, fragment) [reference compound]
clinical score (disease induction) [2]: did not prevent disease induction | Th1 and Th17 responses (CPM, IL-17, GM-CSF, IFN-γ, IL-10, IL-4) (Th1 and Th17 responses): inhibited the Th1 and Th17 responses | staining for CD45, CD4, and CD11b in spinal cord ([3]; tissue retrieved at day 40): positive staining

PLP139-151 polystyrene particles: PLP139-151 bound to polystyrene particles (CHCLGKWLGHPDK; cysteine pairing not given here; also: bound to polystyrene particles; UniProt P60202 139-151, looked up, fragment) [reference compound]
animals observed to die from anaphylaxis ([4]; mouse, in vivo): > 70%

PLP139-151-PLG: immunodominant proteolipid protein PLP139-151 epitope coupled to 500 nm PLG nanoparticles
clinical scores between days 20 and 30 ([2]; 500 nm particles given on day −7, days 20 to 30): under 1 | clinical score (disease induction) ([2]; listed as PLG-PLP139-151): specifically prevented EAE development | clinical score (disease induction) ([2]; listed as PLP139-151-PLGA): 0 | mean clinical score with anti-CD25 antibody compared with control IgG antibody ([2]; anti-CD25 on Day −9, particles plus antibody on Day −7): greater mean clinical score | delayed-type hypersensitivity (DTH) responses to immunizing PLP139-151 epitope ([2]; prophylactic treatment on day −7): lack of delayed-type hypersensitivity (DTH) responses | induction of R-EAE by type of particle (mean clinical score, mean cumulative score) ([2]; treated on day −7, N=5 per group): more effective in down-regulating induction of R-EAE | anaphylaxis-associated mortality [5]: does not result in any anaphylaxis-associated mortality | mean clinical scores ([4]; administered intravenously, at most time points): 0 | efficiency of tolerance by route of administration ([4]; treated at day 10, iv, ip, sc or oral): most efficient when the PLG-PLP139-151 particles are administered either intravenously or intraperitoneally | blood brain barrier (BBB) disruption and macrophage activation in the spinal cord ([3]; in vivo imaging (Angiosense, prosense)): inhibits blood brain barrier (BBB) disruption and macrophage activation | immune cell infiltration, inflammation and demyelination of the spinal cord ([3]; tissue retrieved at day 40): inhibits cervical spinal cord inflammation and demyelination; also recorded: reduction in immune cell infiltration within the spinal cord | staining for CD45, CD4, and CD11b in spinal cord ([3]; tissue retrieved at day 40): minimal staining | tolerance induction (mean clinical score) in active and adoptive EAE ([6]; 500 nm particles iv after disease induction (10 days active, 2 days adoptive)): tolerance is induced; also recorded: reduced disease; also recorded: induces tolerance | infiltration of central nervous system immune cells ([6]; iv 2 days after adoptive transfer, brains and spinal cords at day 14, flow cytometry): drastically reduced | mean clinical score ([6]; treated at day 2, all but two time points through day 40): 0 | mean clinical score at the other two time points ([6]; treated at day 2, through day 40): 0.25

insulin coupled PLG particles: insulin coupled PLG particles
percentage of mice that did not develop diabetes over 300 days [1]: 69.6%

B1: soluble OVA: soluble ovalbumin given intravenously (protein, UniProt P01012 2-386, looked up)
Ovalbumin: GSIGAASMEFCFDVFKELKVHHANENIFYCPIAIMSALAMVYLGAKDSTRTQINKVVRFDKLPGFGDSIEAQCGTSVNVHSSLRDILNQITKPNDVYSFSLASRLYAEERYPILPEYLQCVKELYRGGLEPINFQTAADQARELINSWVESQTNGIIRNVLQPSSVDSQTAMVLVNAIVFKGLWEKAFKDEDTQAMPFRVTEQESKPVQMMYQIGLFRVASMASEKMKILELPFASGTMSMLVLLPDEVSGLEQLESIINFEKLTEWTSSNVMEERKIKVYLPRMKMEEKYNLTSVLMAMGITDVFSSSANLSGISSAESLKISQAVHAAHAEINEAGREVVGSAEAGVDAASVSEEFRADHPFLFCIKHIATNAVLFFGRCVSP
body temperature [7]: decrease in temperature
